The text below walks through data of patent US12358886B2, “Heterocyclic compounds for use in the treatment of cancer” (Artios Pharma Limited, priority 2019, dated 2025).

Sequence of Polθ protein (amino acids 2-2590) (O75417 2-2590): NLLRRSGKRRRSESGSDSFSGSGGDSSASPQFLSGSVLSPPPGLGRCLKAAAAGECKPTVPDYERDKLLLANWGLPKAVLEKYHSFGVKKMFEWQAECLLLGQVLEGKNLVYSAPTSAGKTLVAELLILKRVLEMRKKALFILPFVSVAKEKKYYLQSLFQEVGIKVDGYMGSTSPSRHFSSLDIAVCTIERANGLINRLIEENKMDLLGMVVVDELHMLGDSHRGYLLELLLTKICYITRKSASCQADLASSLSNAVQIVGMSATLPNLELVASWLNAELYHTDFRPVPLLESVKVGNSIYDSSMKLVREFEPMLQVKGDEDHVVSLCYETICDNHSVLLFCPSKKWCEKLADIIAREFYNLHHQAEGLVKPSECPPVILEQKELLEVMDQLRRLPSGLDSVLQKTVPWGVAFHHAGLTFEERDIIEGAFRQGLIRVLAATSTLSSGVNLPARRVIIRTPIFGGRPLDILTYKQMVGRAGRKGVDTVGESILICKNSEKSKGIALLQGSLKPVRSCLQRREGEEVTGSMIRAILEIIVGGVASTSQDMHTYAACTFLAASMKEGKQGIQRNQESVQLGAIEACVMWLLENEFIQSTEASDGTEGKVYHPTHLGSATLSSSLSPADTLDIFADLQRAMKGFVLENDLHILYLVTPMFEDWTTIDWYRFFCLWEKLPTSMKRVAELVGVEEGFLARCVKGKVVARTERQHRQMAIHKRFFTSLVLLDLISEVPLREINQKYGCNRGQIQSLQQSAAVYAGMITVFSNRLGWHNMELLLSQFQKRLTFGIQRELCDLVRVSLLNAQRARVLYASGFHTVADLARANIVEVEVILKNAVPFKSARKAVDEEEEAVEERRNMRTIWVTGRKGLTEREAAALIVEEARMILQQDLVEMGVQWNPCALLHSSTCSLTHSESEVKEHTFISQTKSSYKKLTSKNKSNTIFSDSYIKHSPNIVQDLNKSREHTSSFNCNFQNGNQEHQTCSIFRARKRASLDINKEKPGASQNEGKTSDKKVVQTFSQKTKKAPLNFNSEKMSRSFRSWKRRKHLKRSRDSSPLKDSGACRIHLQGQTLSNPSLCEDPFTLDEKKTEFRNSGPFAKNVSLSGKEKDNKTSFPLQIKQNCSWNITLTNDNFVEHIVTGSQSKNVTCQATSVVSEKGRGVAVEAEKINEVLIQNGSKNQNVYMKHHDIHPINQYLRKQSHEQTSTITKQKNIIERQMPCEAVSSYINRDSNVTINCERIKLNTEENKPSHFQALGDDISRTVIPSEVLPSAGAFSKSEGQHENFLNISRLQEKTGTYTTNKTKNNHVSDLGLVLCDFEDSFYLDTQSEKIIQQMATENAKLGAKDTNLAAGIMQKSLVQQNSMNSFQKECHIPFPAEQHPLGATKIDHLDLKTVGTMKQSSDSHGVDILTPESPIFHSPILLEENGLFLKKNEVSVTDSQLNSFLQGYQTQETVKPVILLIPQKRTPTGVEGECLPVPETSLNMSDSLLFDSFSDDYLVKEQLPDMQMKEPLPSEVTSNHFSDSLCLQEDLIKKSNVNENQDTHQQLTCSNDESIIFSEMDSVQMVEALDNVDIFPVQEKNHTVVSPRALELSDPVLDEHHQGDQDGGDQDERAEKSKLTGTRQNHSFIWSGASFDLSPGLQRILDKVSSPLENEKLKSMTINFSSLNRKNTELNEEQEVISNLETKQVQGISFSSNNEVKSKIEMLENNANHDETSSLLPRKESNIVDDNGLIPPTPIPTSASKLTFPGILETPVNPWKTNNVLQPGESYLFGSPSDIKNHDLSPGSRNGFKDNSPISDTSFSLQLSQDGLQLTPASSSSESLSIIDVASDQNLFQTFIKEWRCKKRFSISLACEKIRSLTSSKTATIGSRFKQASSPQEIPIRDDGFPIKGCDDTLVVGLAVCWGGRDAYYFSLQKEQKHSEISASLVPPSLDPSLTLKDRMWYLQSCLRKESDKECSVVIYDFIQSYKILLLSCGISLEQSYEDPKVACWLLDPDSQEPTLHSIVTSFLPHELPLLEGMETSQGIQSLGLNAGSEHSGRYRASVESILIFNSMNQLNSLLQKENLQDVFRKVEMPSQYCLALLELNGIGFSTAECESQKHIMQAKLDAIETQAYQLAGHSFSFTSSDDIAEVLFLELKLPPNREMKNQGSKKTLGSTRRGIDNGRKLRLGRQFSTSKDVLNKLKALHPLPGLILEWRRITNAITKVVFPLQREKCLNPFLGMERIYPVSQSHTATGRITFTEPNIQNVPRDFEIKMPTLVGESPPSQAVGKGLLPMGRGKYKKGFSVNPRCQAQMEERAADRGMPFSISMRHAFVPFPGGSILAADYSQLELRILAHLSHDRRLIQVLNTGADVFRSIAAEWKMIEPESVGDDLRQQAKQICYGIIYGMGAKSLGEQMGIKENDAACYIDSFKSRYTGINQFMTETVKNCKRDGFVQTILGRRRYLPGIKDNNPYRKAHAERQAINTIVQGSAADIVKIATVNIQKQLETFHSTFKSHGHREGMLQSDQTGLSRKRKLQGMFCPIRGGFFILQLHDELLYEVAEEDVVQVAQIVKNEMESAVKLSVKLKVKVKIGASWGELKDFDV

The assay addresses Polθ protein (amino acids 2-2590) (Homo sapiens, UniProt O75417). Description: Polθ full length enzyme potency assay (PicoGreen). To be noted: Polθ IC50 (nM), full length N-His, C-term FLAG tagged Polθ, PicoGreen fluorescence, 12 point concentration response.
Description: Polθ Full Length Enzyme Potency Assay
PicoGreen assay was used to measure the ability of compounds to inhibit the activity of Polθ in vitro. […] DMSO concentration was maintained at 1% by back filling with DMSO solution. […] This was dispensed into each well of the compound plate using a VIAFLO 16 channel manual pipette (Integra) and pre-incubated at rt for 30 min. 3 μL of 2× working solution of dNTPs (40 μM) (dATP, dCTP, dGTP, dTTP; Sigma D6500, D4635, D4010, T0251) diluted in assay buffer was then added and the reaction incubated for 60 min at rt. The reaction was stopped by addition of 10 mM EDTA, 25 mM Tris pH 7.5 and 1:200 dilution of PicoGreen dye (Invitrogen P7581).
In the case of `Cc1cc(C(F)(F)F)cc(N2C(=O)N(CCN3CCN(C)C(=O)C3)C[C@H]2C(=O)N(C)c2ccc(F)c(Cl)c2F)n1` [Example 210, (S)-N-(3-Chloro-2,4-difluorophenyl)-N-methyl-1-(2-(4-methyl-3-oxopiperazin-1-yl)ethyl)-3-(6-methyl-4-(trifluoromethyl)pyridin-2-yl)-2-oxoimidazolidine-4-carboxamide], half-maximal inhibition (IC50) required 7 nM.
`CCN(C(=O)[C@@H]1C[C@H](N(C)[C@H]2CN(C(=O)OC(C)(C)C)C[C@H]2O)CN1c1cc(C(F)(F)F)cc(C)n1)c1ccc(F)c(F)c1` [Example 144, tert-Butyl (3S,4R)-3-(((3S,5S)-5-((3,4-difluorophenyl)(ethyl)carbamoyl)-1-(6-methyl-4-(trifluoromethyl)pyridin-2-yl)pyrrolidin-3-yl)(methyl)amino)-4-hydroxypyrrolidine-1-carboxylate] registered an IC50 of 1310 nM.
`CCN(C(=O)[C@@H]1C[C@H](N2CCOC[C@H]2CO)CN1c1nc(C)cc(C(F)(F)F)c1C#N)c1ccc(F)c(Cl)c1` [Example 153, (2S,4S)-N-(3-Chloro-4-fluorophenyl)-1-(3-cyano-6-methyl-4-(trifluoromethyl)pyridin-2-yl)-N-ethyl-4-((R)-3-(hydroxymethyl)morpholino)pyrrolidine-2-carboxamide] showed an IC50 of 104 nM.
With `CCN(C(=O)[C@@H]1C[C@H](N2CCC(O)C2)CN1c1cc(C(F)(F)F)cc(C)n1)c1ccc(F)c(F)c1` (stereo partly drawn) [Example 129, (3S,5S)-N-(3,4-Difluorophenyl)-N-ethyl-3-hydroxy-1′-(6-methyl-4-(trifluoromethyl)pyridin-2-yl)-[1,3′-bipyrrolidine]-5′-carboxannide] the figure was 78 nM.
`CCN(C(=O)[C@H]1C[C@@H](NCCS(C)(=O)=O)CN1c1nc(C)cc(C)c1C#N)c1cccc(C)c1` (stereo in doubt) [Example 45, (2R,4R)-1-(3-Cyano-4,6-dimethylpyridin-2-yl)-N-ethyl-4-((2-(methylsulfonyl)ethyl)-amino)-N-(m-tolyl)pyrrolidine-2-carboxamide] showed an IC50 of 85 nM.
With `Cc1cc(C(F)(F)F)cc(N2C(=O)NC[C@H]2C(=O)N(c2ccc(F)c(Cl)c2)C(C)C)n1` [Example 179, (S)—N-(3-Chloro-4-fluorophenyl)-N-isopropyl-3-(6-methyl-4-(trifluoromethyl)pyridin-2-yl)-2-oxoimidazolidine-4-carboxamide] the figure was 15 nM; with `Cc1cc(C(F)(F)F)cc(N2C(=O)[C@@H](O)[C@@H](O)[C@H]2C(=O)N(C)c2ccc(F)c(C)c2)n1` [Example 67, (2S,3S,4S)-N-(4-Fluoro-3-methyl-phenyl)-3,4-dihydroxy-N-methyl-1-(6-methyl-4-(trifluoromethyl)pyridin-2-yl)-5-oxopyrrolidine-2-carboxamide], 6 nM.
In turn, `Cc1cc(C(F)(F)F)cc(N2C(=O)[C@@H](COCc3ccccc3)C[C@H]2C(=O)N(C)c2ccc(F)c(Cl)c2)n1` [Example 76, (2S,4R)-4-((Benzyloxy)methyl)-N-(3-chloro-4-fluorophenyl)-N-methyl-1-(6-methyl-4-(trifluoromethyl)pyridin-2-yl)-5-oxopyrrolidine-2-carboxamide] showed a half-inhibitory concentration (IC50) of 24 nM.
Regarding `Cc1cc(OC(F)F)cc(N2C(=O)OC[C@H]2C(=O)N(C)c2ccc(F)c(Cl)c2)n1` [Example 121, (S)—N-(3-Chloro-4-fluorophenyl)-3-(4-(difluoromethoxy)-6-methylpyridin-2-yl)-N-methyl-2-oxooxazolidine-4-carboxamide], half-maximal inhibition (IC50) required 167 nM.
`CCN(C(=O)[C@@H]1C[C@H](N2CCO[C@H](CO)C2)CN1c1nc(C)cc(C(F)(F)F)c1C#N)c1ccc(F)c(Cl)c1` [Example 154, (2S,4S)-N-(3-Chloro-4-fluorophenyl)-1-(3-cyano-6-methyl-4-(trifluoromethyl)pyridin-2-yl)-N-ethyl-4-((S)-2-(hydroxymethyl)morpholino)pyrrolidine-2-carboxamide] came in with an IC50 of 15 nM.
On to `Cc1cc(C(F)(F)F)cc(N2C(=O)NC[C@H]2C(=O)N(c2ccc(F)c(Cl)c2F)C2CC2)n1` [Example 161, (S)—N-(3-Chloro-2,4-difluorophenyl)-N-cyclopropyl-3-(6-methyl-4-(trifluoromethyl)-pyridin-2-yl)-2-oxoimidazolidine-4-carboxamide], for which 12 nM corresponded to half-maximal inhibition (IC50). This IC50 and that of the compound before are within 1.5-fold of each other.
In turn, `Cc1cc(C(F)(F)F)c(C#N)c(N2CCC[C@H]2C(=O)N(C)c2ccccc2)n1` [Example 1, (S)-1-(3-Cyano-6-methyl-4-(trifluoromethyl)pyridin-2-yl)-N-methyl-N-phenylpyrrolidine-2-carboxamide] had an IC50 of 72 nM. This IC50 is about 6-fold higher than that of the compound before.
Take `CCN(C(=O)[C@H]1C[C@@H](N(C)C2CCNC2)CN1c1nc(C)cc(C)c1C#N)c1cccc(C)c1` (stereo in doubt) [Example 48, (2R,4R)-1-(3-Cyano-4,6-dimethylpyridin-2-yl)-N-ethyl-4-(methyl(pyrrolidin-3-yl)amino)-N-(m-tolyl)pyrrolidine-2-carboxamide]: the IC50 was determined as 573 nM.
On to `Cc1cc(C(F)(F)F)cc(N2C(=O)N(CCN3CC[C@H](O)C3)C[C@H]2C(=O)N(C)c2ccc(F)c(Cl)c2)n1` [Example 196, (S)-N-(3-Chloro-4-fluorophenyl)-1-(2-((S)-3-hydroxypyrrolidin-1-yl)ethyl)-N-methyl-3-(6-methyl-4-(trifluoromethyl)pyridin-2-yl)-2-oxoimidazolidine-4-carboxamide], for which the 50% inhibitory concentration (IC50) came to 24 nM.
With `CCc1ccc(N(C)C(=O)[C@@H]2COC(=O)N2c2cc(C(F)(F)F)cc(C)n2)c(F)c1` [Example 112, (S)—N-(4-Ethyl-2-fluorophenyl)-N-methyl-3-(6-methyl-4-(trifluoromethyl)pyridin-2-yl)-2-oxooxazolidine-4-carboxamide] the figure was 11 nM; with `Cc1cc(C(F)(F)F)c(C#N)c(N2CCC[C@H]2C(=O)N(C)c2ccc3c(n2)N(C)CCO3)n1` [Example 245, (S)-1-(3-Cyano-6-methyl-4-(trifluoromethyl)pyridin-2-yl)-N-methyl-N-(4-methyl-3,4-dihydro-2H-pyrido[3,2-b][1,4]oxazin-6-yl)pyrrolidine-2-carboxamide], 74 nM; with `Cc1cc(C(F)(F)F)cc(N2C(=O)OC[C@H]2C(=O)N(C)c2ccc3c(c2)COC3)n1` [Example 102, (S)-N-(1,3-Dihydroisobenzofuran-5-yl)-N-methyl-3-(6-methyl-4-(trifluoromethyl)pyridin-2-yl)-2-oxooxazolidine-4-carboxamide], 86 nM.
`Cc1cc(C(F)(F)F)cc(N2C(=O)N(CC(O)CO)C[C@H]2C(=O)N(C)c2ccc(F)c(Cl)c2F)n1` (stereo partly drawn) [Example 226, (4S)—N-(3-Chloro-2,4-difluorophenyl)-1-(2,3-dihydroxypropyl)-N-methyl-3-(6-methyl-4-(trifluoromethyl)pyridin-2-yl)-2-oxoimidazolidine-4-carboxamide] had an IC50 of 19 nM.
As for `Cc1cc(C(F)(F)F)cc(N2C(=O)[C@@H](O)[C@@H](O)[C@H]2C(=O)N(C)c2ccc3ccn(C)c3n2)n1` [Example 167, (2S,3S,4S)-3,4-Dihydroxy-N-methyl-N-(1-methyl-1H-pyrrolo[2,3-b]pyridin-6-yl)-1-(6-methyl-4-(trifluoromethyl)pyridin-2-yl)-5-oxopyrrolidine-2-carboxamide], the 50% inhibitory concentration (IC50) amounted to 56 nM.
For `CCN(C)c1cc(C(F)(F)F)c(C#N)c(N2C[C@@H](O)C[C@H]2C(=O)N(C)c2cccc(C)c2)n1` [Example 31, (2S,4S)-1-(3-Cyano-6-(ethyl(methyl)amino)-4-(trifluoromethyl)pyridin-2-yl)-4-hydroxy-N-methyl-N-(m-tolyl)pyrrolidine-2-carboxamide], the IC50 was 395 nM.
Regarding `Cc1cc(C(F)(F)F)cc(N2C(=O)N(CCS(C)(=N)=O)C[C@H]2C(=O)N(C)c2ccc(F)c(Cl)c2)n1` (stereo partly drawn) [Example 213, (4S)—N-(3-Chloro-4-fluorophenyl)-N-methyl-3-(6-methyl-4-(trifluoromethyl)pyridin-2-yl)-1-(2-(S-methylsulfonimidoyl)ethyl)-2-oxoimidazolidine-4-carboxamide], the IC50 worked out at 26 nM.
In the case of `Cc1cc(C(F)(F)F)cc(N2C(=O)NC[C@H]2C(=O)N(C)c2ccc3ccn(C)c3n2)n1` [Example 234, (S)—N-Methyl-N-(1-methyl-1H-pyrrolo[2,3-b]pyridin-6-yl)-3-(6-methyl-4-(trifluoromethyl)pyridin-2-yl)-2-oxoimidazolidine-4-carboxamide] it was 5 nM; in that of `Cc1cc(C(F)(F)F)cc(N2C(=O)N(S(C)(=O)=O)C[C@H]2C(=O)N(C)c2ccc(F)c(Cl)c2)n1` [Example 159, (S)—N-(3-Chloro-4-fluorophenyl)-N-methyl-3-(6-methyl-4-(trifluoromethyl)pyridin-2-yl)-1-(methylsulfonyl)-2-oxoimidazolidine-4-carboxamide], 178 nM.
In the case of `Cc1cc(C(F)(F)F)cc(N2C(=O)OC[C@H]2C(=O)N(C)c2ccc(C)c(Cl)c2)n1` [Example 88, (S)-N-(3-Chloro-4-methylphenyl)-N-methyl-3-(6-methyl-4-(trifluoromethyl)pyridin-2-yl)-2-oxooxazolidine-4-carboxamide], the concentration for half-maximal inhibition (IC50) was found to be 6 nM.
`Cc1cc(C(F)(F)F)cc(N2C(=O)N(CCN3CCCC3CO)C[C@H]2C(=O)N(C)c2ccc(F)c(Cl)c2)n1` (single isomer, unassigned; isomer 2) [Example 199] displayed an IC50 of 32 nM. This IC50 lies about 5.3-fold higher than the previous one.
Take `Cc1cc(C)c(C#N)c(N2C[C@@H](O)C[C@H]2C(=O)N(C)c2cccc(CF)c2)n1` [Example 11, (2S,4S)-1-(3-Cyano-4,6-dimethylpyridin-2-yl)-N-(3-(fluoromethyl)phenyl)-4-hydroxy-N-methylpyrrolidine-2-carboxamide]: 452 nM corresponded to half-maximal inhibition (IC50). This IC50 lies about 14-fold higher than the previous one.
Take `Cc1cc(C(F)(F)F)cc(N2C(=O)N(CCN3CCC(F)(F)C3)C[C@H]2C(=O)N(C)c2ccc(F)c(Cl)c2F)n1` [Example 206, (S)-N-(3-Chloro-2,4-difluorophenyl)-1-(2-(3,3-difluoropyrrolidin-1-yl)ethyl)-N-methyl-3-(6-methyl-4-(trifluoromethyl)pyridin-2-yl)-2-oxoimidazolidine-4-carboxamide]: the IC50 was 15 nM.
